The values that follow come from ChEMBL document CHEMBL4823244, “Synthesis of norisoboldine derivatives and bioactivity assay for inducing the generation of regulatory T cells” (Bioorg Med Chem Lett, 2021).

One data set concerns EL4. Nature of the data set: Cytotoxicity against mouse EL4 cells assessed as effect on cell viability at 1 to 10 uM measured after 72 hrs by MTT assay. In kind it is cell-based. As to conditions: el4, 72 h, dose 1-10 µM.
Data set [1] deals with T-cell. Nature of the data set: Induction of cell differentiation in anti-CD3/CD28 stimulated naive T-cells assessed as upregulation of Foxp3 mRNA expression at 0.3 to 3 uM measured after 72 hrs by Q-PCR analysis. It is filed as functional, cell-based. As to conditions: dose 0.3-3 µM.
In data set [2] the test system is T-cell. In words: Induction of cell differentiation in anti-CD3/CD28 stimulated naive T-cells assessed as number of Treg cells at 3 uM measured after 72 hrs by flow cytometry analysis (reference value: 24 %). It is filed as functional. In general terms: A flow cytometer gives signals particle by particle.
Data set [3] deals with T-cell. Nature of the data set: Induction of cell differentiation in anti-CD3/CD28 stimulated naive T-cells assessed as number of Treg cells at 1 uM measured after 72 hrs by flow cytometry analysis (reference value: 24 %). In kind it is functional.
Data set [4] relates to T-cell. Nature of the data set: Induction of cell differentiation in anti-CD3/CD28 stimulated naive T-cells assessed as upregulation of CD4+ CD25+ cell frequency at 1 uM measured after 72 hrs by flow cytometry analysis. In kind it is functional, cell-based.
The test system of data set [5] is Mus musculus. Nature of the data set: Induction of Treg cell differentiation in DSS- induced ulcerative colitis mouse model assessed as number of Treg cells in spleens at 28 mg/kg, po administered for 10 consecutive days by flow cytometry analysis (Rvb= 6.49%). In kind it is functional. As to conditions: time 10 day.
For data set [6], the system named is Mus musculus. Nature of the data set: Induction of Treg cell differentiation in DSS- induced ulcerative colitis mouse model assessed as number of Treg cells in colonic lamina proprias at 56 mg/kg, po administered for 10 consecutive days by flow cytometry analysis (Rvb= 7.97%). The settings on record: time 10 day. In kind it is functional.
Data set [7] has as its system Mus musculus. Nature of the data set: Antiinflammatory activity in DSS-induced ulcerative colitis mouse model assessed as rescue of colon length shortening at 28 to 56 mg/kg, po administered for 10 consecutive days. In kind it is functional, organism-based. As to conditions: dose 28-56 mg/kg, time 10.0 day.
Data set [8] deals with T-cell. Nature of the data set: Induction of cell differentiation in anti-CD3/CD28 stimulated naive T-cells assessed as upregulation of IL-10 mRNA expression at 0.3 to 3 uM measured after 72 hrs by Q-PCR analysis. It is filed as functional, cell-based. As to conditions: dose 0.3-3 µM.
Data set [9] deals with Mus musculus. Nature of the data set: Induction of Treg cell differentiation in DSS- induced ulcerative colitis mouse model assessed as number of Treg cells in mesenteric lymph nodes at 56 mg/kg, po administered for 10 consecutive days by flow cytometry analysis (Rvb= 7.52%). It is filed as functional. As to conditions: time 10 day.
In data set [10] the test system is Mus musculus. Nature of the data set: Antiinflammatory activity in DSS-induced ulcerative colitis mouse model assessed as reduction in MPO activity at 28 to 56 mg/kg, po administered for 10 consecutive days. As to conditions: dose 28-56 mg/kg, time 10.0 day. It is filed as functional, organism-based.
The subject of data set [11] is T-cell. Nature of the data set: Induction of cell differentiation in anti-CD3/CD28 stimulated naive T-cells assessed as upregulation of Foxp3 mRNA expression at 1 uM measured after 72 hrs by Q-PCR analysis. In kind it is functional, cell-based.
Data set [12] concerns Mus musculus. Nature of the data set: Induction of Treg cell differentiation in DSS- induced ulcerative colitis mouse model assessed as number of Treg cells in spleens at 56 mg/kg, po administered for 10 consecutive days by flow cytometry analysis (Rvb= 6.49%). In kind it is functional. As to conditions: time 10 day.
For data set [13], the system named is Mus musculus. In words: Antiinflammatory activity in DSS-induced ulcerative colitis mouse model assessed as reduction in DAI score at 28 to 56 mg/kg, po administered for 10 consecutive days. It is filed as functional, organism-based. The settings on record: dose 28-56 mg/kg, time 10.0 day.
The test system of data set [14] is Mus musculus. In words: Induction of Treg cell differentiation in DSS- induced ulcerative colitis mouse model assessed as increase in Foxp3 mRNA level at 28 to 56 mg/kg, po administered for 10 consecutive days by Q-PCR analysis. As to conditions: dose 28-56 mg/kg, time 10.0 day. It is filed as functional, organism-based.
Data set [15] deals with Mus musculus. In words: Antiinflammatory activity in DSS-induced ulcerative colitis mouse model assessed as protection against colon destruction at 28 to 56 mg/kg, po administered for 10 consecutive days by HE staining based histopathological analysis. It is filed as functional, organism-based. As to conditions: dose 28-56 mg/kg, time 10.0 day.
In data set [16] the test system is Mus musculus. Nature of the data set: Induction of Treg cell differentiation in DSS- induced ulcerative colitis mouse model assessed as number of Treg cells in colonic lamina proprias at 28 mg/kg, po administered for 10 consecutive days by flow cytometry analysis (Rvb= 7.97%). It is filed as functional. As to conditions: time 10 day.
The test system of data set [17] is Mus musculus. In words: Induction of Treg cell differentiation in DSS- induced ulcerative colitis mouse model assessed as number of Treg cells in mesenteric lymph nodes at 28 mg/kg, po administered for 10 consecutive days by flow cytometry analysis (Rvb= 7.52%). It is filed as functional. The settings on record: time 10 day.
The subject of data set [18] is T-cell. In words: Induction of cell differentiation in anti-CD3/CD28 stimulated naive T-cells assessed as number of Treg cells at 0.3 uM measured after 72 hrs by flow cytometry analysis (reference value: 24 %). It is filed as functional.
In data set [19] the test system is Mus musculus. Nature of the data set: Antiinflammatory activity in DSS-induced ulcerative colitis mouse model assessed as protection against inflammation of colons at 28 to 56 mg/kg, po administered for 10 consecutive days by HE staining based histopathological analysis. It is filed as functional, organism-based. As to conditions: dose 28-56 mg/kg, time 10.0 day.

Data set [20] deals with Mus musculus. Nature of the data set: Induction of Treg cell differentiation in DSS- induced ulcerative colitis mouse model assessed as increase in IL-10 mRNA level at 28 to 56 mg/kg, po administered for 10 consecutive days by Q-PCR analysis. As to conditions: dose 28-56 mg/kg, time 10.0 day. In kind it is functional, organism-based.
Data set [21] relates to Mus musculus. In words: Antiinflammatory activity in DSS-induced ulcerative colitis mouse model assessed as protection against inflammation of colons at 200 mg/kg, po administered for 10 consecutive days by HE staining based histopathological analysis. As to conditions: time 10.0 day. It is filed as functional, organism-based.
Data set [22] concerns Mus musculus. Nature of the data set: Antiinflammatory activity in DSS-induced ulcerative colitis mouse model assessed as protection against colon destruction at 200 mg/kg, po administered for 10 consecutive days by HE staining based histopathological analysis. In kind it is functional, organism-based. As to conditions: time 10.0 day.
Data set [23] relates to Mus musculus. In words: Induction of Treg cell differentiation in DSS- induced ulcerative colitis mouse model assessed as number of Treg cells in colonic lamina proprias at 200 mg/kg, po administered for 10 consecutive days by flow cytometry analysis (Rvb= 7.97%). In kind it is functional. The settings on record: time 10 day.
Data set [24] concerns Mus musculus. Nature of the data set: Antiinflammatory activity in DSS-induced ulcerative colitis mouse model assessed as rescue of colon length shortening at 200 mg/kg, po administered for 10 consecutive days. In kind it is functional, organism-based. As to conditions: time 10.0 day.
The subject of data set [25] is Mus musculus. Nature of the data set: Antiinflammatory activity in DSS-induced ulcerative colitis mouse model assessed as reduction in MPO activity at 200 mg/kg, po administered for 10 consecutive days. In kind it is functional, organism-based. As to conditions: time 10.0 day.
Data set [26] has as its system Mus musculus. In words: Induction of Treg cell differentiation in DSS- induced ulcerative colitis mouse model assessed as number of Treg cells in spleens at 200 mg/kg, po administered for 10 consecutive days by flow cytometry analysis (Rvb= 6.49%). It is filed as functional. The settings on record: time 10 day.
Data set [27] concerns Mus musculus. In words: Antiinflammatory activity in DSS-induced ulcerative colitis mouse model assessed as reduction in DAI score at 200 mg/kg, po administered for 10 consecutive days. In kind it is functional, organism-based. The settings on record: time 10.0 day.
For data set [28], the system named is Mus musculus. Nature of the data set: Induction of Treg cell differentiation in DSS- induced ulcerative colitis mouse model assessed as number of Treg cells in mesenteric lymph nodes at 200 mg/kg, po administered for 10 consecutive days by flow cytometry analysis (Rvb= 7.52%). In kind it is functional. As to conditions: time 10 day.

Structures are written as SMILES. Activity calls are given as the source filed them. No cut-off for these calls is given here.

Take `COc1cc2c(cc1O)CC1c3c(cc(OC)c(O)c3-2)CCN1C(=O)c1cc(C)cc(C)c1` (centres undefined): the Activity entry in the data set on EL4 is reported as “Non-Toxic”; in the data set with T-cell [2], 36%; in the data set with T-cell [3], 31.1%; in the data set with Mus musculus [5], 7.03%; in the data set on Mus musculus [6], 14.5%; in the data set with Mus musculus [9], 12.32%. Besides, the Activity with Mus musculus [12] amounted to 7.87%; with Mus musculus [16] it was 13.57%; with Mus musculus [17], 11.55%; in the data set with T-cell [18], 25.2%. The outcome in the data set on T-cell [1], in the data set on Mus musculus [7], in the data set with T-cell [8], in the data set on Mus musculus [10], in the data set with T-cell [11] and in the data set on Mus musculus [13] was Active. Also, the result with Mus musculus [14], in the data set with Mus musculus [15], with Mus musculus [19] and with Mus musculus [20] was Active. Besides, the result in the data set with T-cell [4] was inactive.
In the case of `Nc1ccc(O)c(C(=O)O)c1` [MESALAMINE], the outcome in the data set with Mus musculus [21], in the data set on Mus musculus [22], in the data set on Mus musculus [24], in the data set on Mus musculus [25] and in the data set on Mus musculus [27] was Active. The Activity in the data set with Mus musculus [23] was 9.59%; in the data set on Mus musculus [26], 5.9%; in the data set on Mus musculus [28] it was 7.7%.
